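The compound was tested at five concentrations on cells cultured in 96-well plates, with a 48-hour exposure period. Here, GI50 denotes the concentration required for 50% inhibition of growth.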 Active and inactive are the calls of the source. No stated cut-off is given here; in the data, active = GI50 up to about 1.1 µM and inactive = higher. Where a SMILES comes first, the peptide text is derived from it. Bridges are numbered along the chain shown (N, C = ends). [ ]: non-standard residue; d: D form. The star is where a group is joined. ξ: configuration not given here. X28 = O=C(/C=C/C=C/C=C/C=C/C=C/C(=O)*)NC1=C(O)CCC1=O; NMeA = CN[C@@H](C)C(=O)O; ξF = NC(Cc1ccccc1)C(=O)O; ξA = CC(N)C(=O)O
Key:
Assay in all cases: NCI anticancer screen, dose series, 48 h
[1] = test system: 786-0
[2] = test system: CAKI-1
[3] = test system: COLO 205
[4] = test system: HCT-15
[5] = test system: HOP-62
[6] = test system: Hs-578T
[7] = test system: KM12
[8] = test system: M14
[9] = test system: MDA-MB-435
[10] = test system: Malme-3M
[11] = test system: NCI-H226
[12] = test system: NCI-H460
[13] = test system: OVCAR-5
[14] = test system: OVCAR-8
[15] = test system: SK-MEL-5
[16] = test system: SN12C
[17] = test system: SR
[18] = test system: U-251
[19] = test system: SK-MEL-2
[20] = test system: UACC-257

Structure (SMILES) | GI50 [1] | GI50 [2] | GI50 [3] | GI50 [4] | GI50 [5] | GI50 [6] | GI50 [7] | GI50 [8] | GI50 [9] | GI50 [10] | GI50 [11] | GI50 [12] | GI50 [13] | GI50 [14] | GI50 [15] | GI50 [16] | GI50 [17] | GI50 [18] | GI50 [19] | GI50 [20]
CC(NC(=O)C(Cc1ccc(OC(=O)c2ccccc2)cc1)NC(=O)OC(C)(C)C)C(=O)NCC(=O)NC(Cc1ccccc1)NC(=O)OCc1ccccc1 (centres undefined) | > 100 µM (inactive) | > 100 µM (inactive) | > 100 µM (inactive) | > 100 µM | > 100 µM (inactive) | 59.8 µM (inactive) | > 100 µM (inactive) | > 100 µM (inactive) | > 100 µM (inactive) | > 100 µM (inactive) | > 100 µM (inactive) | > 100 µM (inactive) | > 100 µM (inactive) | > 100 µM (inactive) | 71.6 µM (inactive) | > 100 µM (inactive) | 87.5 µM (inactive) | > 100 µM (inactive) | – | –
Clc1ccc(-c2c3nc(c(-c4ccc(Cl)cc4)c4ccc([nH]4)c(-c4ccc(Cl)cc4)c4nc(c(-c5ccc(Cl)cc5)c5ccc2[nH]5)C=C4)C=C3)cc1 | > 100 µM (inactive) | > 100 µM (inactive) | > 100 µM (inactive) | > 100 µM | > 100 µM (inactive) | 40.1 µM (inactive) | > 100 µM (inactive) | > 100 µM (inactive) | > 100 µM (inactive) | 70.8 µM (inactive) | – | > 100 µM (inactive) | > 100 µM (inactive) | > 100 µM (inactive) | > 100 µM (inactive) | > 100 µM (inactive) | > 100 µM (inactive) | > 100 µM (inactive) | > 100 µM (inactive) | > 100 µM (inactive)
COC1=C(OC)C(=O)C(Cc2c(Cl)nc3n2CCS3)=C(C)C1=O | 18.2 µM (inactive) | 16.6 µM (inactive) | 17.2 µM (inactive) | 17.1 µM | 15.6 µM (inactive) | 19.8 µM (inactive) | 14 µM (inactive) | 13.1 µM (inactive) | 13.9 µM (inactive) | 7.83 µM (inactive) | – | 15 µM (inactive) | 17.6 µM (inactive) | 15.3 µM (inactive) | 11.7 µM (inactive) | 16.3 µM (inactive) | 7.59 µM (inactive) | 17.5 µM (inactive) | 14.6 µM (inactive) | 9.84 µM (inactive)
CC[C@@H]1CC[C@@H]2[C@H](CC[C@]3(C)[C@@H](OC(C)=O)CC[C@@H]23)[C@H]1C(=O)OC | 23.4 µM (inactive) | 35.3 µM (inactive) | 16 µM (inactive) | 22 µM | 24.9 µM (inactive) | 46.1 µM (inactive) | 22.5 µM (inactive) | 19.6 µM (inactive) | 20.9 µM (inactive) | 17.3 µM (inactive) | 18.8 µM (inactive) | 23 µM (inactive) | 23.1 µM (inactive) | 27.9 µM (inactive) | 14.6 µM (inactive) | 25.2 µM (inactive) | – | 21.2 µM (inactive) | 20.1 µM (inactive) | 25.3 µM (inactive)
COc1ccc(C(OC(C)=O)C2C(=C(C#N)C#N)c3ccccc3C2=C(C#N)C#N)cc1 (centres undefined) | 60.4 µM (inactive) | 39.6 µM (inactive) | – | 31.2 µM | 20.8 µM (inactive) | 35.6 µM (inactive) | 43.7 µM (inactive) | 40.7 µM (inactive) | 36.7 µM (inactive) | – | 38.6 µM (inactive) | 28.1 µM (inactive) | 17.2 µM (inactive) | 60.7 µM (inactive) | 48 µM (inactive) | – | 16.1 µM (inactive) | 41.9 µM (inactive) | 27.7 µM (inactive) | > 100 µM (inactive)
O=C1C(Br)=CC2(C=C1Br)CCNC1=C2C(=O)c2[nH]cnc2C1=O | 16.4 µM (inactive) | 24.5 µM (inactive) | 21.3 µM (inactive) | 15.6 µM | 17.2 µM (inactive) | 26.3 µM (inactive) | 16.9 µM (inactive) | 16.9 µM (inactive) | 11 µM (inactive) | – | 20.4 µM (inactive) | 16.7 µM (inactive) | 15.9 µM (inactive) | 16.8 µM (inactive) | 11.2 µM (inactive) | – | 30.1 µM (inactive) | 15 µM (inactive) | 9.12 µM (inactive) | 14.6 µM (inactive)
c1ccc(-c2cc(C3CO3)c3ccccc3n2)cc1 (centres undefined) | 15.5 µM (inactive) | 22.5 µM (inactive) | 19.7 µM (inactive) | 19.5 µM | 26.5 µM (inactive) | 29.3 µM (inactive) | 17.5 µM (inactive) | 18.9 µM (inactive) | 18.9 µM (inactive) | – | 19.1 µM (inactive) | 18.8 µM (inactive) | 22 µM (inactive) | 20 µM (inactive) | 16.7 µM (inactive) | 16.3 µM (inactive) | 18.3 µM (inactive) | 16 µM (inactive) | 18.4 µM (inactive) | 19.1 µM (inactive)
O=C(Sc1c(-c2ccccc2)c(=O)n(-c2ccccc2)c(=S)n1-c1ccccc1)c1ccc(Cl)cc1 | > 100 µM (inactive) | > 100 µM (inactive) | > 100 µM (inactive) | > 100 µM | > 100 µM (inactive) | > 100 µM (inactive) | > 100 µM (inactive) | > 100 µM (inactive) | > 100 µM (inactive) | > 100 µM (inactive) | > 100 µM (inactive) | > 100 µM (inactive) | > 100 µM (inactive) | > 100 µM (inactive) | – | > 100 µM (inactive) | > 100 µM (inactive) | > 100 µM (inactive) | – | > 100 µM (inactive)
Cc1c(-c2ccccc2)cc(O)c2nc3ccccc3n12 | 29 µM (inactive) | 74.1 µM (inactive) | > 100 µM (inactive) | 6.32 µM | 21.1 µM (inactive) | 55.1 µM (inactive) | 15.6 µM (inactive) | > 100 µM (inactive) | 13.7 µM (inactive) | > 100 µM (inactive) | > 100 µM (inactive) | 6.31 µM (inactive) | > 100 µM (inactive) | > 100 µM (inactive) | 44 µM (inactive) | > 100 µM (inactive) | 7.06 µM (inactive) | 6.75 µM (inactive) | – | > 100 µM (inactive)
Cc1ccc(C)c(COCCOCn2ccc(N)nc2=O)c1 | > 100 µM (inactive) | > 100 µM (inactive) | > 100 µM (inactive) | > 100 µM | > 100 µM (inactive) | > 100 µM (inactive) | > 100 µM (inactive) | > 100 µM (inactive) | > 100 µM (inactive) | > 100 µM (inactive) | > 100 µM (inactive) | > 100 µM (inactive) | > 100 µM (inactive) | > 100 µM (inactive) | – | > 100 µM (inactive) | > 100 µM (inactive) | > 100 µM (inactive) | > 100 µM (inactive) | > 100 µM (inactive)
O=c1[nH]nc(-c2ccccc2)n1-c1ccncc1 | > 100 µM (inactive) | > 100 µM (inactive) | > 100 µM (inactive) | > 100 µM | > 100 µM (inactive) | > 100 µM (inactive) | > 100 µM (inactive) | > 100 µM (inactive) | > 100 µM (inactive) | > 100 µM (inactive) | > 100 µM (inactive) | > 100 µM (inactive) | > 100 µM (inactive) | > 100 µM (inactive) | > 100 µM (inactive) | > 100 µM (inactive) | > 100 µM (inactive) | > 100 µM (inactive) | – | > 100 µM (inactive)
CC(C)(Cc1ccccc1)NC1=NCCO1 | > 100 µM (inactive) | > 100 µM (inactive) | > 100 µM (inactive) | > 100 µM | – | 76.4 µM (inactive) | > 100 µM (inactive) | > 100 µM (inactive) | > 100 µM (inactive) | > 100 µM (inactive) | > 100 µM (inactive) | > 100 µM (inactive) | > 100 µM (inactive) | > 100 µM (inactive) | > 100 µM (inactive) | – | > 100 µM (inactive) | > 100 µM (inactive) | > 100 µM (inactive) | > 100 µM (inactive)
CC[C@H]1CN(C)[C@H]2Cc3c([nH]c4ccccc34)C(=O)C[C@H]1C2C(=O)OC (some centres undefined) | > 100 µM (inactive) | – | > 100 µM (inactive) | > 100 µM | > 100 µM (inactive) | > 100 µM (inactive) | > 100 µM (inactive) | > 100 µM (inactive) | > 100 µM (inactive) | > 100 µM (inactive) | > 100 µM (inactive) | > 100 µM (inactive) | > 100 µM (inactive) | > 100 µM (inactive) | > 100 µM (inactive) | > 100 µM (inactive) | > 100 µM (inactive) | > 100 µM (inactive) | > 100 µM (inactive) | > 100 µM (inactive)
CC1NC(=O)[C@H](C)N(C)C(=O)[C@@H]2CCCN2C(=O)[C@@H](NC(=O)C(Cc2ccccc2)NC(=O)/C=C/C=C/C=C/C=C/C=C/C(=O)NC2=C(O)CCC2=O)COC(=O)[C@@H]2CCCN2C1=O (some centres undefined) (X28-[ξF]SP[NMeA][ξA]P; ester 2-C) | > 100 µM (inactive) | 40.4 µM (inactive) | > 100 µM (inactive) | > 100 µM | 48.1 µM (inactive) | 59.2 µM (inactive) | 58.9 µM (inactive) | > 100 µM (inactive) | > 100 µM (inactive) | > 100 µM (inactive) | – | > 100 µM (inactive) | > 100 µM (inactive) | – | > 100 µM (inactive) | > 100 µM (inactive) | 79.3 µM (inactive) | > 100 µM (inactive) | > 100 µM (inactive) | > 100 µM (inactive)

Source: ChEMBL document CHEMBL1201862, “PubChem BioAssay data set” (2004)
